Experiment [1] deals with MCF-12A. The experiment in a line: Anticancer activity against human MCF-12A cells assessed as reduction of cell viability incubated for 48 hrs by MTT assay. The experiment is classed as functional, cell-based. Background: Tetrazolium dyes change colour on reduction, which living cells bring about.
The subject of experiment [2] is MCF7. The experiment in a line: Anticancer activity against human MCF7 cells assessed as reduction of cell viability incubated for 48 hrs by MTT assay. The experiment is classed as functional, cell-based. The settings on record: MCF7, 48 h.
Experiment [3] deals with HaCaT. The experiment in a line: Anticancer activity against human HaCaT cells assessed as reduction of cell viability incubated for 48 hrs by MTT assay. The experiment is classed as functional, cell-based.
In experiment [4] the test system is A-431. The experiment in a line: Anticancer activity against human A-431 cells assessed as reduction of cell viability incubated for 48 hrs by MTT assay. The experiment is classed as functional, cell-based. The settings on record: A-431, 48 h.
The nature of experiment [5]: Anticancer activity against human MuM-2B cells assessed as cell growth inhibition incubated for 72 hrs by CCK-8 assay. The experiment is classed as functional, cell-based.
Experiment [6] relates to COLO 205. In words: Anticancer activity against human COLO 205 cells assessed as cell growth inhibition. The experiment is classed as functional.
In experiment [7] the test system is SF-539. In words: Anticancer activity against human SF-539 cells assessed as cell growth inhibition. The experiment is classed as functional.
For experiment [8], the system named is MDA-MB-435. The experiment in a line: Anticancer activity against human MDA-MB-435 cells assessed as cell growth inhibition. The experiment is classed as functional.
In experiment [9] the test system is MV4-11. The experiment in a line: Anticancer activity against human MV4-11 cells assessed as cell growth inhibition. The experiment is classed as functional. The conditions noted are these: read-out: LD50 (the source's name).
The test system of experiment [10] is SK-MEL-5. In words: Anticancer activity against human SK-MEL-5 cells assessed as cell growth inhibition. The experiment is classed as functional.
Experiment [11] deals with T1, Aromatase (Homo sapiens, UniProt P11511).
T1 sequence (P11511 whole entry): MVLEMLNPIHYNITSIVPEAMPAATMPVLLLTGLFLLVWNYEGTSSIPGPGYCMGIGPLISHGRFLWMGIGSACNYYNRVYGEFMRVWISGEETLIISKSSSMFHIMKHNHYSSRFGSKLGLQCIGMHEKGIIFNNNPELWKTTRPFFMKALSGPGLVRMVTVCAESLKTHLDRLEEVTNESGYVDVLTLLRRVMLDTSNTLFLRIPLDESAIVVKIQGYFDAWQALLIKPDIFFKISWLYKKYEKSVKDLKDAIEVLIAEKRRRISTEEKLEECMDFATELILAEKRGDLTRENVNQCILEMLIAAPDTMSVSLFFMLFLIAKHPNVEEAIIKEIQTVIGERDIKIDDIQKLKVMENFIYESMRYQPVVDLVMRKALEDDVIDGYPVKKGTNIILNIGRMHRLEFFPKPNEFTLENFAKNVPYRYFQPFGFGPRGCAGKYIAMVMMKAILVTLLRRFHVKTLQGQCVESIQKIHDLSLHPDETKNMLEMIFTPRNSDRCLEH
In words: Inhibition of human recombinant aromatase using 7-methoxy-4-trifluoromethyl coumarin as substrate preincubated for 10 mins followed by compound addition measured after 30 mins in presence of NADPH by HTS analysis.

Experiment [12] concerns HeLa. In words: Anticancer activity against human HeLa cells assessed as cell growth inhibition. The experiment is classed as functional, cell-based.
Experiment [13] deals with HCT-116. The experiment in a line: Anticancer activity against human HCT-116 cells assessed as cell growth inhibition incubated for 4 days. The experiment is classed as functional, cell-based. The conditions noted are these: HCT-116, 96 h.
For experiment [14], the system named is ASPC1. In words: Anticancer activity against human ASPC1 cells assessed as cell growth inhibition incubated for 72 hrs by MTT assay. The experiment is classed as functional, cell-based. The conditions noted are these: ASPC1, 72 h.
In experiment [15] the test system is BXPC-3. In words: Anticancer activity against human BXPC-3 cells assessed as cell growth inhibition incubated for 72 hrs by MTT assay. The settings on record: BXPC-3, 72 h. The experiment is classed as functional, cell-based.
Experiment [16] deals with Capan-2. In words: Anticancer activity against human Capan-2 cells assessed as cell growth inhibition incubated for 72 hrs by MTT assay. The experiment is classed as functional, cell-based. The settings on record: Capan-2, 72 h.
For experiment [17], the system named is PC-3. In words: Anticancer activity against human PC-3 assessed as cell growth inhibition incubated for 24 hrs by MTT assay. The experiment is classed as functional, cell-based. The settings on record: PC-3, 24 h.
Experiment [18] concerns MCF7. In words: Anticancer activity against human MCF7 assessed as cell growth inhibition incubated for 24 hrs by MTT assay. The experiment is classed as functional, cell-based. The conditions noted are these: MCF7, 24 h.
Experiment [19] relates to HeLa. The experiment in a line: Anticancer activity against human HeLa cells assessed as cell growth inhibition incubated for 48 hrs by MTT assay. The experiment is classed as functional, cell-based.
In experiment [20] the test system is HL-60. In words: Anticancer activity against human HL-60 cells assessed as cell growth inhibition incubated for 48 hrs by MTT assay. The experiment is classed as functional, cell-based. The conditions noted are these: HL-60, 48 h.

Nine molecules from ChEMBL document CHEMBL5233248, “Resveratrol - A comprehensive review of recent advances in anticancer drug design and development” (Eur J Med Chem, 2020) can be followed below.

As for `COc1cc(/C=C/c2ccc(SC)cc2)cc(OC)c1OC`, the IC50 (as a rule, the concentration that gives 50% inhibition) in experiment [1] amounted to 25.7 µM; in experiment [2], 2.1 µM; in [3] it was 10 µM; in [4], 19.3 µM.
In the case of `COc1cc(/C=C/c2ccc(OCC(=O)O[C@H]3c4cc5c(cc4[C@@H](c4cc(OC)c(OC)c(OC)c4)[C@H]4C(=O)OC[C@@H]43)OCO5)cc2)cc(OC)c1`, the IC50 in experiment [5] was 0.081 µM.
For `COc1cc(/C(C#N)=C/c2ccc3ccccc3c2)cc(OC)c1OC`, the GI50 in experiment [6], in [7], in experiment [8] and in experiment [10] was ≤ 0.025 µM each time. The CC50 in experiment [9] came to 0.2 µM.
With `COc1ccccc1/C=C/c1ccc(OC)c(OC)c1`, the IC50 in experiment [11] is 85 µM.
Turning to `CC(=O)Oc1ccc(/C=C/c2ncc3cccc(OC(C)=O)c3n2)cc1OC(C)=O`, in experiment [12], the IC50 was 10.2 µM.
As to `CC1c2cc(O)c(O)cc2Oc2cc(/C=C/c3ccc(O)cc3)cc(O)c21` (stereo not given), in experiment [13], the concentration for half-maximal inhibition (IC50) was found to be 9.52 µM.
In the case of `Nc1ccc(/C=C/c2ccc(O)cc2)cc1`, the IC50 in experiment [14] was determined as 3.23 µM; in experiment [15], 22.5 µM; in experiment [16], 3.03 µM.
`Oc1ccc(/C=C/c2cccc(Br)n2)cc1O`: the IC50 in experiment [17] was found to be 12.4 µM; in [18], 14.5 µM.
Regarding `COc1ccc(NC(=O)c2cc(OC)cc(OC)c2)cc1`, the IC50 worked out at 38.9 µM in experiment [19] and 47.7 µM in [20].
